This experiment has as its target S1P1 receptor (Homo sapiens, UniProt P21453). The experiment in a line: 35S-GTPγS binding, membranes from CHO cells expressing S1P1. It is filed as biochemical. To be noted: CHO cell membranes expressing S1P1. How it is done: Receptor binding assay: Membranes were prepared from CHO cells expressing S1P1 or S1P3 for use in ligand and 35S-GTPTS binding studies. Cells were suspended in 50 mM TRIS, pH 7.4, 2 mM EDTA, 250 mM Sucrose (buffer A) and 1× Complete protease inhibitor cocktail (Roche), and disrupted at 4° C. by nitrogen decompression using a cell disruption bomb (Parr Instrument). Following centrifugation at 1000 RPM for 10 min at 4° C., the supernatant was suspended in buffer A and centrifuged again at 19000 RPM for 60 min at 4° C. The pellet was then suspended in 10 mM HEPES, pH 7.4, 1 mM EDTA, 250 mM Sucrose (Buffer B), and 1× Complete EDTA-free protease inhibitor cocktail and homogenized using a potter. Membranes were flash frozen in liquid nitrogen and stored at −80° C. [33P]sphingosine 1-phosphate (3000 Ci/mmol; American Radiolabeled Chemicals, Inc.) was added to test compounds in DMSO. Membranes and WGA SPA beads (GE Healthcare) were added to give a final volume of 100 μl in 96-well plates with assay concentrations of […] [33P]sphingosine 1-phosphate (respectively for S1P1 or S1P3), 50 mM HEPES, pH 7.5, 5 mM MgCl2, 100 mM NaCl, 0.4% fatty acid-free BSA, 1-5 μg/well of proteins and 100 μg/well of WGA SPA beads. Binding was performed for 60 min at room temperature on a shaker and bound radioactivity was measured on a PerkinElmer 1450 MicroBeta counter. Specific binding was calculated by subtracting remaining radioactivity in the presence of 1000-fold excess of unlabeled S1P. Binding data were analyzed using the GraphPad Prism program.
Measurements of ^35S-GTPγS Binding: Membranes (1 to 10 μg protein) prepared as described above, were incubated in 96-well Scintiplates (PerkinElmer) with test compounds diluted in DMSO, in 180 μl of 20 mM HEPES, pH 7.4, 10 mM MgCl2, 2 μg/well Saponin, 0.2% fatty acid free BSA (Assay buffer), 140 mM NaCl and 1.7 μM GDP. The assay was initiated with the addition of 20 μl of 1.5 nM [35S]-GTPγS (1100 Ci/mmol; GE Healthcare) in assay buffer. After 60 min incubation at 30° C. on a shaker, plates were centrifuged for 10 min at 2000 RPM. Supernatant was discarded and membrane bound radioactivity was measured on a PerkinElmer 1450 MicroBeta counter. Triplicate samples were averaged and expressed as response relative to S1P activation in absence of compound (n=2).
For orientation: Binding of GTPγS marks nucleotide exchange on a G protein.
S1P1 receptor, sequence (P21453 whole entry): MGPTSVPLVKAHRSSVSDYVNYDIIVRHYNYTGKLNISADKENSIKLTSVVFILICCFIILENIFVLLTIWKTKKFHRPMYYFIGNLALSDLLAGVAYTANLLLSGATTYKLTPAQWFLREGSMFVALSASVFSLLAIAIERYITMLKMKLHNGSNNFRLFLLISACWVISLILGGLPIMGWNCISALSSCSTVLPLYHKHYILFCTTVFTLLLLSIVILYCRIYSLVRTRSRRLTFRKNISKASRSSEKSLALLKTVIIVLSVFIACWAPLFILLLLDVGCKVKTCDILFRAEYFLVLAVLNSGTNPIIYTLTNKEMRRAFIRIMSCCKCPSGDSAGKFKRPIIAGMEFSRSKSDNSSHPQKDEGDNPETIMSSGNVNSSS
For orientation: EC50 means the concentration at which the effect is half-maximal. Higher therefore signals lower potency in that assay. `Cc1c(-c2nc(-c3cc(F)ccc3F)no2)nnn1-c1ccccc1F` [Example 2, 3-[2,5-Difluorophenyl)-5-[1-(2-fluorophenyl)-5-methyl-1H-1,2,3-triazole-4-yl]-1,2,4-oxadiazole] displayed an EC50 of 1130 nM.
Compound `Cc1c(-c2nc(-c3cc(F)ccc3F)no2)nnn1-c1ccccc1Br` [Example 3, 5-[1-(2-Bromophenyl)-5-methyl-1H-1,2,3-triazole-4-yl]-3-(2,5-difluorophenyl)-1,2,4-oxadiazole] gave an EC50 of 2720 nM.
Consider `O=C(O)c1ccc(-c2noc(-c3nnn(-c4ccccc4F)c3-c3ccccc3)n2)cc1F` [Example 23, 2-Fluoro-4-{5-[1-(2-fluorophenyl)-5-phenyl-1H-1,2,3-triazole-4-yl]-1,2,4-oxadiazole-3-yl}benzoic acid], for which the EC50 is 646 nM.
As to `O=C(O)c1ccc(-c2noc(-c3nnn(-c4ccccc4F)c3-c3ccccc3)n2)cc1` [Example 24, 4-{5-[1-(2-Fluorophenyl)-5-phenyl-1H-1,2,3-triazole-4-yl]-1,2,4-oxadiazole-3-yl}benzoic acid], the EC50 is 1840 nM.
Regarding `COc1cc(CCC(=O)O)ccc1-c1noc(-c2nnn(-c3ccccc3F)c2-c2ccccc2)n1` [Example 29, 3-(4-{5-[1-(2-Fluorophenyl)-5-phenyl-1H-1,2,3-triazole-4-yl]-1,2,4-oxadiazole-3-yl}-3-methoxyphenyl)propanoic acid], the EC50 is 1270 nM.
With `Cc1cc(CCC(=O)O)ccc1-c1noc(-c2nnn(-c3ccccc3F)c2-c2ccccc2)n1` [Example 30, 3-(4-{5-[1-(2-Fluorophenyl)-5-phenyl-1H-1,2,3-triazole-4-yl]-1,2,4-oxadiazole-3-yl}-3-methylphenyl)propanoic acid], the EC50 was determined as 709 nM.
Turning to `Fc1ccccc1-n1nnc(-c2nc(-c3cccnc3)no2)c1-c1ccncc1` [Example 42, 3-{5-[1-(2-fluorophenyl)-5-pyridin-4-yl-1H-1,2,3-triazol-4-yl]-1,2,4-oxadiazol-3-yl}pyridine], the midpoint of the response, the EC50, lay at 42 nM.
In the case of `Fc1ccccc1-n1nnc(-c2nc(-c3ccc4[nH]ccc4c3)no2)c1-c1ccncc1` [Example 43, 5-{5-[1-(2-fluorophenyl)-5-pyridin-4-yl-1H-1,2,3-triazol-4-yl]-1,2,4-oxadiazol-3-yl}-1H-indole] it was 19 nM; in that of `COCCc1c(-c2nc(-c3cc(F)ccc3F)no2)nnn1-c1ccccc1F` [Example 44, 3-(2,5-difluorophenyl)-5-[1-(2-fluorophenyl)-5-(2-methoxyethyl)-1H-1,2,3-triazol-4-yl]-1,2,4-oxadiazole], 53 nM; in that of `Fc1ccccc1-n1nnc(-c2nc(-c3ccccn3)no2)c1-c1ccncc1` [Example 45, 2-{5-[1-(2-fluorophenyl)-5-pyridin-4-yl-1H-1,2,3-triazol-4-yl]-1,2,4-oxadiazol-3-yl}pyridine], 2170 nM.
For the compound `COCc1c(-c2nc(-c3ccccc3OC)no2)nnn1-c1ccccc1F` [Example 50, 5-[1-(2-fluorophenyl)-5-(methoxymethyl)-1H-1,2,3-triazol-4-yl]-3-(2-methoxyphenyl)-1,2,4-oxadiazole], the midpoint of the response, the EC50, lay at 443 nM.
In turn, `Fc1ccccc1-c1noc(-c2nnn(-c3ccccc3F)c2C2CCCO2)n1` (stereo not drawn) [Example 53, 3-(2-fluorophenyl)-5-[1-(2-fluorophenyl)-5-(tetrahydrofuran-2-yl)-1H-1,2,3-triazol-4-yl]-1,2,4-oxadiazole] showed an EC50 of 211 nM.
Compound `Fc1ccccc1-n1nnc(-c2nc(-c3cccnc3)no2)c1C1CCCO1` (stereo not drawn) [Example 54] showed an EC50 of 953 nM.
`CC(=O)N1CCC(c2noc(-c3nnn(-c4ccccc4F)c3-c3ccncc3)n2)CC1` [Example 55, 4-[4-[3-(1-acetylpiperidin-4-yl)-1,2,4-oxadiazol-5-yl]-1-(2-fluorophenyl)-1H-1,2,3-triazol-5-yl]pyridine] returned an EC50 of 1420 nM.
In the case of `Fc1ccccc1-n1nnc(-c2nc(-c3ccncc3)no2)c1C1CCCO1` (stereo not drawn) [Example 56, 4-{5-[1-(2-fluorophenyl)-5-(tetrahydrofuran-2-yl)-1H-1,2,3-triazol-4-yl]-1,2,4-oxadiazol-3-yl}pyridine] it was 1850 nM.
Regarding `COc1ccc(-c2noc(-c3nnn(-c4ccccc4F)c3-c3ccccn3)n2)cc1` [Example 57, 2-{1-(2-fluorophenyl)-4-[3-(4-methoxyphenyl)-1,2,4-oxadiazol-5-yl]-1H-1,2,3-triazol-5-yl}pyridine], the concentration giving a half-maximal response (EC50) stood at 959 nM.
Turning to `Fc1ccccc1-c1noc(-c2nnn(-c3ccccc3F)c2Cc2ccccc2)n1` [Example 58, 5-[5-benzyl-1-(2-fluorophenyl)-1H-1,2,3-triazol-4-yl]-3-(2-fluorophenyl)-1,2,4-oxadiazole], the EC50 was 1160 nM.
As to `Fc1ccccc1-n1nnc(-c2nc(-c3cccc(CN4CCOCC4)c3)no2)c1-c1ccncc1` [Example 60, 4-(3-{5-[1-(2-fluorophenyl)-5-pyridin-4-yl-1H-1,2,3-triazol-4-yl]-1,2,4-oxadiazol-3-yl}benzyl)morpholine], the EC50 came out at 620 nM.
On to `CC(C)c1c(-c2nc(-c3cc(F)ccc3F)no2)nnn1-c1ccccc1F` [Example 63, 3-(2,5-difluorophenyl)-5-[1-(2-fluorophenyl)-5-isopropyl-1H-1,2,3-triazol-4-yl]-1,2,4-oxadiazole], for which it took 310 nM to reach a half-maximal effect (EC50).
In the case of `Oc1ccc(-c2noc(-c3nnn(-c4ccccc4F)c3-c3ccncc3)n2)cc1` [Example 64, 4-{5-[1-(2-fluorophenyl)-5-pyridin-4-yl-1H-1,2,3-triazol-4-yl]-1,2,4-oxadiazol-3-yl}phenol] it was 8 nM.
Turning to `Fc1ccccc1-n1nnc(-c2nc(-c3ccncc3)no2)c1-c1ccccn1` [Example 66, 2-[1-(2-fluorophenyl)-4-(3-pyridin-4-yl-1,2,4-oxadiazol-5-yl)-1H-1,2,3-triazol-5-yl]pyridine], the EC50 is 26 nM.
For the compound `COc1ccccc1-c1noc(-c2nnn(-c3ccccc3F)c2-c2ccccn2)n1` [Example 67, 2-{1-(2-fluorophenyl)-4-[3-(2-methoxyphenyl)-1,2,4-oxadiazol-5-yl]-1H-1,2,3-triazol-5-yl}pyridine], a half-maximal response (EC50) required 873 nM.
As to `COc1cccc(-c2noc(-c3nnn(-c4ccccc4F)c3-c3ccccn3)n2)c1` [Example 70, 2-{1-(2-fluorophenyl)-4-[3-(3-methoxyphenyl)-1,2,4-oxadiazol-5-yl]-1H-1,2,3-triazol-5-yl}pyridine], the EC50 is 284 nM.
Compound `Fc1ccc(F)c(-c2noc(-c3nnn(-c4ccccc4F)c3C3CCCO3)n2)c1` (stereo not drawn) [Example 71, 3-(2,5-difluorophenyl)-5-[1-(2-fluorophenyl)-5-(tetrahydrofuran-2-yl)-1H-1,2,3-triazol-4-yl]-1,2,4-oxadiazole] came in with an EC50 of 176 nM.
Compound `Fc1ccccc1-n1nnc(-c2nc(-c3ccncc3)no2)c1C1CCCC1` [Example 72, 4-{5-[5-cyclopentyl-1-(2-fluorophenyl)-1H-1,2,3-triazol-4-yl]-1,2,4-oxadiazol-3-yl}pyridine] yielded a concentration for a half-maximal effect (EC50) of 980 nM.
In the case of `NC(=O)c1ccc(-c2noc(-c3nnn(-c4ccccc4F)c3-c3ccncc3)n2)cc1` [Example 73, 4-{5-[1-(2-fluorophenyl)-5-pyridin-4-yl-1H-1,2,3-triazol-4-yl]-1,2,4-oxadiazol-3-yl}benzamide], the EC50 was 49 nM.
`CC(C)(C)OC(=O)NCc1ccc(-c2noc(-c3nnn(-c4ccccc4F)c3-c3ccncc3)n2)cc1` [Example 74, tert-butyl (4-{5-[1-(2-fluorophenyl)-5-pyridin-4-yl-1H-1,2,3-triazol-4-yl]-1,2,4-oxadiazol-3-yl}benzyl)carbamate] had an EC50 of 1100 nM.
The figure for `Fc1ccccc1-n1nnc(-c2nc(-c3cccnc3)no2)c1Cc1ccccc1` [Example 75, 3-{5-[5-benzyl-1-(2-fluorophenyl)-1H-1,2,3-triazol-4-yl]-1,2,4-oxadiazol-3-yl}pyridine] is 665 nM; for `COCc1c(-c2nc(-c3ccc(S(N)(=O)=O)cc3)no2)nnn1-c1ccccc1F` [Example 76, 4-{5-[1-(2-fluorophenyl)-5-(methoxymethyl)-1H-1,2,3-triazol-4-yl]-1,2,4-oxadiazol-3-yl}benzenesulfonamide] it is 583 nM.
In the case of `Fc1ccccc1-c1noc(-c2nnn(-c3ccccc3F)c2C2CCCC2)n1` [Example 78, 5-[5-cyclopentyl-1-(2-fluorophenyl)-1H-1,2,3-triazol-4-yl]-3-(2-fluorophenyl)-1,2,4-oxadiazole] it was 397 nM.

For the origin of these results see patent US8202856B2 (Merck Serono SA, priority 2007, dated 2012).
